One assay has as its target NSD2 [1-1365] (Homo sapiens (Human), UniProt O96028). Kind of assay: LC-MS/MS-based NSD2 enzymatic assay (SAH production). The class given is biochemical. The following applies: NSD2 biochemical activity, class symbols; read-out: NSD2 IC50. In short, it runs like this:
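SAH formed was measured by LC-MS/MS using d4-SAH as internal standard and an SAH calibration curve. Compounds were preincubated 20 min with NSD2 [1-1365] and SAM; mouse-liver nucleosome then started a 90 min room-temperature reaction (8 nM enzyme, 1 μM SAM, 400 nM nucleosome final, pH 8.0), stopped with TFA.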

In assay [1] the test system is cellular H3K36me2 level in multiple myeloma cell line KMS11 (t(4;14)+). Kind of assay: H3K36me2 cellular FRET assay in KMS11-Par line. It is filed as cell-based. The following applies: Homo sapiens, KMS-11, KMS11-Par line, cellular H3K36me2 level, FRET; read-out: H3K36me2 FRET in KMS11-Par.
For assay [2], the system named is cellular H3K36me2 level in thyroid carcinoma cell line CGTH-W-1 (NSD2 E1099K). As to the kind of experiment: H3K36me2 cellular ELISA assay in CGTH-W-1 line. The class given is cell-based. The following applies: Homo sapiens, CGTH-W-1, 72 h, read-out: H3K36me2 ELISA in CGTH-W-1. In short, it runs like this: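 After 72 h compound treatment of NSD2 E1099K-mutant CGTH-W-1 cells, H3K36me2 and total H3 were quantified by ELISA with chemiluminescent read-out. A parallel-seeded plate gave cell viability by CellTiter-Glo.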

For assay [3], the system named is cellular H3K36me2 level in multiple myeloma cell line KMS11 (t(4;14)+). Kind of assay: H3K36me2 cellular ELISA assay in KMS11-Par line. The class given is cell-based. Conditions: Homo sapiens, KMS-11; KMS11-Par line (t(4;14)+), 72 hours treatment, ELISA; read-out: H3K36me2 ELISA in KMS11-Par. In short, it runs like this:
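After 72 h compound exposure, HCl-extracted histones from KMS11 (t(4;14)+) cells were probed by ELISA for H3K36me2 against total H3 with a chemiluminescence read-out. Cells were plated at 1,250/well in Opti-MEM plus B-27 and N2 the day before. A parallel CellTiter-Glo plate tracked viability.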
A general note: ELISA stands for enzyme-linked immunosorbent assay.

Chain of NSD2 [1-1365] (O96028 whole entry): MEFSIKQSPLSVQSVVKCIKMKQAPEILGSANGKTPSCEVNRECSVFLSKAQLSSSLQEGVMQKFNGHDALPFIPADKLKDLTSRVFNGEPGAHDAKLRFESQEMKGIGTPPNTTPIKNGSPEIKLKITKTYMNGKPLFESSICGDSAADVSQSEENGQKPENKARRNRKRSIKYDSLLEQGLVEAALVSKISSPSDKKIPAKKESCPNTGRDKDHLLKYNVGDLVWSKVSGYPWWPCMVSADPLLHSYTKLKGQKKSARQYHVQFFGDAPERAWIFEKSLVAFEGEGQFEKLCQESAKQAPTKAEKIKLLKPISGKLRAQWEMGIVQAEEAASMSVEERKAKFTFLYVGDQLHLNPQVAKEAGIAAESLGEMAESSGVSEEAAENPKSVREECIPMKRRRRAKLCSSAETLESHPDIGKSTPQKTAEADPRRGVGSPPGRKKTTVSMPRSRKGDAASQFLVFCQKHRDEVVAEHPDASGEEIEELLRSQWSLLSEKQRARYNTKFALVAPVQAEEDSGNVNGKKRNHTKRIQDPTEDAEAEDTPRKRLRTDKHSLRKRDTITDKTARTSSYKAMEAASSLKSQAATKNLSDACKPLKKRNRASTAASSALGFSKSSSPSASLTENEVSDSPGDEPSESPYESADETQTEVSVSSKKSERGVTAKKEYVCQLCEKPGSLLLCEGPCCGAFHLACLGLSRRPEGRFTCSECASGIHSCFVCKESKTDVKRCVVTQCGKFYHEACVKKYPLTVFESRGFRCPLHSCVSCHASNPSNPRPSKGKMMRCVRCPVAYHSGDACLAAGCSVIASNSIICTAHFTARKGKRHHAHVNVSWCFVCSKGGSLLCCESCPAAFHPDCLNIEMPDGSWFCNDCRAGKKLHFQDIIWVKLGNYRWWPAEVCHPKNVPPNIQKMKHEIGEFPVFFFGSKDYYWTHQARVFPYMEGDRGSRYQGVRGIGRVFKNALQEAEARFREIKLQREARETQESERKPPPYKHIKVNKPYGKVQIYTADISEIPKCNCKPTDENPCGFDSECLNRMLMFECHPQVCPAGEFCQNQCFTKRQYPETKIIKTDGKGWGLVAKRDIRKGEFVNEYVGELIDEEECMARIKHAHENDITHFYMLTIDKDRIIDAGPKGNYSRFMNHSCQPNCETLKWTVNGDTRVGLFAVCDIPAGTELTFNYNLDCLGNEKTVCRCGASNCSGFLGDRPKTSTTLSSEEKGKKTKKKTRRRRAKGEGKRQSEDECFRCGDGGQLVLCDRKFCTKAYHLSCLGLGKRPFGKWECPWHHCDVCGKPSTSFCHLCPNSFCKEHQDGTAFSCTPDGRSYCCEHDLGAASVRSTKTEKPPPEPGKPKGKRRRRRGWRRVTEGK

As for `Nc1ncnc2c1ncn2Cc1cc(-c2ccc(F)c(F)c2)ncc1N1CCC[C@](N)(CC(F)F)C1` [Example 47, (S)-9-((5-(3-amino-3-(2,2-difluoroethyl)piperidin-1-yl)-2-(3,4-difluorophenyl)pyridin-4-yl)methyl)-9H-purin-6-amine], the IC50 at NSD2 [1-1365] is 10 to 1000 nM; in assay [1], 1180 nM; in assay [2], 377 nM; in assay [3], 1540 nM.
As for `Nc1ncnc2c1ncn2Cc1cc(-c2ccc(F)c(F)c2)ncc1N1CCC[C@](N)(Cc2ncco2)C1` [Example 52, (S)-9-((5-(3-amino-3-(oxazol-2-ylmethyl)piperidin-1-yl)-2-(3,4-difluorophenyl)pyridin-4-yl)methyl)-9H-purin-6-amine], the IC50 on NSD2 [1-1365] was 1 to 10 nM; in assay [1], 1200 nM; in assay [2], 541 nM; in assay [3], 1320 nM.
With `COc1ccc(-c2cc(Cn3cnc4c(N)ncnc43)c(N3CCC[C@](N)([C@H](C)OC)C3)cn2)cc1F` [Example 93, 9-((5-((R)-3-amino-3-((S)-1-methoxyethyl)piperidin-1-yl)-2-(3-fluoro-4-methoxyphenyl)pyridin-4-yl)methyl)-9H-purin-6-amine], the IC50 on NSD2 [1-1365] was 10 to 1000 nM; in assay [1] it was 1390 nM; in assay [2] it was 3210 nM; in assay [3] it was 3970 nM.
`COc1ccc(-c2cc(Cn3cnc4c(N)ncnc43)c(N3CCC[C@](N)([C@@H](C)OC)C3)cn2)cc1F` [Example 94, 9-((5-((R)-3-amino-3-((R)-1-methoxyethyl)piperidin-1-yl)-2-(3-fluoro-4-methoxyphenyl)pyridin-4-yl)methyl)-9H-purin-6-amine]: the IC50 at NSD2 [1-1365] is 10 to 1000 nM; in assay [1], 3040 nM; in assay [2] it was 1090 nM; in assay [3] it was 1200 nM.
For `CO[C@@H](C)[C@@]1(N)CCCN(c2cnc(-c3ccc(F)c(F)c3)cc2Cn2cnc3c(N)ncnc32)C1` [Example 95, 9-((5-((R)-3-amino-3-((S)-1-methoxyethyl)piperidin-1-yl)-2-(3,4-difluorophenyl)pyridin-4-yl)methyl)-9H-purin-6-amine], the IC50 on NSD2 [1-1365] was 10 to 1000 nM; in assay [1], 1820 nM; in assay [2], 1650 nM; in assay [3], 3030 nM.
Take `CO[C@H](C)[C@@]1(N)CCCN(c2cnc(-c3ccc(F)c(F)c3)cc2Cn2cnc3c(N)ncnc32)C1` [Example 97, 9-((5-((R)-3-amino-3-((R)-1-methoxyethyl)piperidin-1-yl)-2-(3,4-difluorophenyl)pyridin-4-yl)methyl)-9H-purin-6-amine]: the IC50 is 10 to 1000 nM at NSD2 [1-1365], 1500 nM in assay [1], 1160 nM in assay [2] and 1240 nM in assay [3].

The values are drawn from patent US11420970B1 (NOVARTIS AG, priority 2019, dated 2022).
